Read-outs that look alike come from different tables or passages of the source.
Columns and labels:
Format in all cases: biochemical
SULT1A3 = molecular target: T1, SULT1A3 (Homo sapiens, UniProt P0DMM9); experiment: Inhibition of 3-OH-BaP sulfotransferase activity by 50 μM OH-PCBs with cDNA-expressed SULT1A3; conditions: for inhibition at 50 µM: read-out: inhibition of 3-OH-BaP sulfonation by SULT1A3
T1 construct: made in house; host or cells: Escherichia coli
Description: (§1) The expression of human SULT1A1*1, SULT1A3, SULT1B1, and SULT1E1 in Escherichia coli has been described previously ([Dajani et al. 1998]; [Wang et al. 1998]). We grew E. coli cells containing the respective sulfotransferase genes as described previously ([Falany et al. 1990], [1994]), and prepared 100,000g supernatant fractions for use in inhibition studies and for partial purification of the SULT enzymes. We purchased expressed SULT1A1*2 cytosolic extract from PanVera (Madison, WI) and used it as supplied.
(§2) We determined SULT activity with 3-OH-BaP as substrate by a fluorimetric assay of BaP-3-SO4 product formation, as described previously ([Wang et al. 2004]). […] Duplicate tubes were prepared for each incubation condition. We examined the kinetics of sulfonation in three liver cytosol fractions by systematically varying the concentration of 3-OH-BaP or PAPS. When the variable substrate was 3-OH-BaP, we used 12 concentrations in the range from 0.035 to 2.00 μM, and the concentration of PAPS was kept constant at 10 μM. When we varied PAPS, we used 7 concentrations from 0.157 to 10.0 μM and kept the concentration of 3-OH-BaP constant at 0.100 μM.
(§3) For each OH-PCB, we examined the concentration dependence of inhibition with three liver cytosol fractions, as well as with cytosol fractions from the E. coli expressing SULT1A1*1, SULT1A3, SULT1B1, and SULT1E1, and the purchased Sf-9 cytosol fraction (PanVera, Madison, WI) containing SULT1A1*2. For studies with HL cytosol, SULT1A1*1, and SULT1E1, we examined two concentrations of 3-OH-BaP, 0.1 μM and 1.0 μM.
(§4) We calculated the effects of OH-PCBs on 3-OH-BaP SULT activity as percentage inhibition compared with the controls without an inhibitor. We obtained IC50 values by fitting log OH-PCB concentration and percent control activity to a sigmoidal curve. We examined the relationships between IC50 and physicochemical properties of the OH-PCBs by linear correlation analysis. We calculated the inhibitory constant (Ki) from the kinetic studies with 4′-OH-CB112 by means of Dixon plots and plots of Km/Vmax against inhibitor concentration ([Cornish-Bowden 1995]).

SULT1B1 = molecular target: T2, SULT1B1 (Homo sapiens, UniProt O43704); experiment: Inhibition of 3-OH-BaP sulfotransferase activity by OH-PCBs with cDNA-expressed SULT1B1; conditions: for IC50: mean of duplicates
T2 construct: made in house; host or cells: Escherichia coli
Description: as §1, §2, §3, §4

SULT1A1*2 [1] = molecular target: T3, SULT1A1*2 (Homo sapiens, UniProt P50225, R213H); experiment: Inhibition of 3-OH-BaP sulfotransferase activity by OH-PCBs with expressed SULT1A1*2
T3 construct: purchased PanVera (Madison, WI); host or cells: Sf-9
Description: as §1, §2, §3, §4

SULT1E1 = molecular target: T4, SULT1E1 (Homo sapiens, UniProt P49888); experiment: Inhibition of 3-OH-BaP sulfotransferase activity by OH-PCBs with cDNA-expressed SULT1E1; conditions: for IC50: mean of duplicates
T4 construct: made in house; host or cells: Escherichia coli
T4 sequence (P49888 1-294): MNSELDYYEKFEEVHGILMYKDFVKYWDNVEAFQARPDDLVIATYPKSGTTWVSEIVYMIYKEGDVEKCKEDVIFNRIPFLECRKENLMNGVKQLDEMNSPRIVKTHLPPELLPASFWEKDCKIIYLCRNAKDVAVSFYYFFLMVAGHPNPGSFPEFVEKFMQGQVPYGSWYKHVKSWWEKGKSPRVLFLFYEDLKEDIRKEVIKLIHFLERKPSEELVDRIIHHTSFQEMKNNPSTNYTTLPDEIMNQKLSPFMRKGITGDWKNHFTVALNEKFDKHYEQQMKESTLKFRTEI
Description: as §1, §2, §3, §4

SULT1A1*1 = molecular target: T5, SULT1A1*1 (Homo sapiens, UniProt P50225); experiment: Inhibition of 3-OH-BaP sulfotransferase activity by OH-PCBs with cDNA-expressed SULT1A1*1; conditions: for IC50: mean of duplicates
T5 construct: made in house; host or cells: Escherichia coli
Description: as §1, §2, §3, §4

SULT1A1*2 [2] = molecular target: T3, SULT1A1*2; experiment: Kinetics of 3-OH-BaP sulfonation by expressed SULT1A1*2; conditions: expressed SULT1A1*2, 0.1 μM 3-OH-BaP, varying PAPS
Description: as §1, §2
We determined the kinetic parameters for 3-OH-BaP sulfonation by partially purified preparations of the cDNA-expressed SULT isozymes under incubation conditions similar to those used for liver cytosol. For SULT1A1*1 and -1A1*2, we used seven substrate concentrations in the range from 5 to 100 nM; for SULT1E1 we used […] 3-OH-BaP concentrations from 15.6 to 1,000 nM; and for SULT1A3 and 1B1 we used seven concentrations of 3-OH-BaP from 0.25 to 5.0 μM.
(§5) We calculated the enzyme kinetic parameters from studies with variable concentrations of 3-OH-BaP using nonlinear regression analysis and GraphPad 4.0 software (GraphPad Software, San Diego, CA). We selected the built-in Michaelis-Menten equation for most analyses. Where we found evidence of 3-OH-BaP substrate inhibition, we fit the data into an equation derived from a two-substrate model ([Zhang et al. 1998]): […]
(§6) This equation denoted the constant for binding of the first substrate (S) molecule as Km and the second substrate molecule as Ki. V1 is the maximum rate for the noninhibitory substrate concentration range, and V2 is the minimum rate in the inhibitory substrate concentration range

[3] = molecular target: HL cytosol sulfotransferase (Homo sapiens, UniProt P50225); experiment: Kinetics of 3-OH-BaP sulfonation by human liver cytosol (fluorimetric assay of BaP-3-SO4 formation); conditions: HL cytosol, 0.1 μM 3-OH-BaP, varying PAPS, mean ± SD n = 3
Method: F.P. Guengerich (Vanderbilt University) kindly donated the samples of human liver, which were procured from organ donors ([Guengerich 1995]). We prepared liver cytosolic fractions from four livers by standard methods and stored aliquots at −80°C until use ([Wang et al. 2004]). We used three or four of these cytosol fractions in each experiment.
as §2, §5, §6

[4] = 1.0 μM 3-OH-BaP, read-out: IC50 SULT1B1
[5] = 0.1 μM 3-OH-BaP, mean of duplicates, read-out: IC50 SULT1A1*2
[6] = 0.1 μM 3-OH-BaP, read-out: IC50 SULT1E1
[7] = 1.0 μM 3-OH-BaP, read-out: IC50 SULT1E1
[8] = 0.1 μM 3-OH-BaP, read-out: IC50 SULT1A1*1
[9] = 1.0 μM 3-OH-BaP, read-out: IC50 SULT1A1*1
[10] = IC50 SULT1A1*1, 0.1 μM 3-OH-BaP
[11] = IC50 SULT1A1*1, 1.0 μM 3-OH-BaP

T1 sequence (P0DMM9 whole entry): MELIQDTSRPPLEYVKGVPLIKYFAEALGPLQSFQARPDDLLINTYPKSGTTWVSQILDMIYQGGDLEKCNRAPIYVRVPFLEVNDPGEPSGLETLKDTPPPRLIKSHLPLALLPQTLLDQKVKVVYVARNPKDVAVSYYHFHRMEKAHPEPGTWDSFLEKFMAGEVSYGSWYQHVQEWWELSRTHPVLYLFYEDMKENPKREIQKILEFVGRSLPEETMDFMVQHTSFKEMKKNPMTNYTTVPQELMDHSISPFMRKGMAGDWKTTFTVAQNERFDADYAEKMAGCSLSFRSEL
T2 sequence (O43704 whole entry): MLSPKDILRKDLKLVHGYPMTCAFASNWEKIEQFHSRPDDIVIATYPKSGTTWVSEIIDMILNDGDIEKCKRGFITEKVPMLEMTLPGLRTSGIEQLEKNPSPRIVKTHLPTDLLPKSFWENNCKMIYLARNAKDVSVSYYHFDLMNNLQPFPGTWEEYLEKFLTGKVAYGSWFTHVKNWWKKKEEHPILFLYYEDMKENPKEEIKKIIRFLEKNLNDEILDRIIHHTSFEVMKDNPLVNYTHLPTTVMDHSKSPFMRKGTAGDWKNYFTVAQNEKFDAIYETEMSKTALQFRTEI
T3 sequence (P50225 whole entry R213H): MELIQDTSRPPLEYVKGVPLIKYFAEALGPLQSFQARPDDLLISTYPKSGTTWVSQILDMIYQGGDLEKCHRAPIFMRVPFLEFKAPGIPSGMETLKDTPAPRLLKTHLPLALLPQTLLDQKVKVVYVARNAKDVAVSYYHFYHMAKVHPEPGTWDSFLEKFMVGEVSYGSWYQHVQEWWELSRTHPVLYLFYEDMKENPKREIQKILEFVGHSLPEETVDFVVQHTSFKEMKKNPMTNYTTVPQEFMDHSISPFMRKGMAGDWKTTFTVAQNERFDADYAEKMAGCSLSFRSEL
HL cytosol sulfotransferase, sequence (P50225 whole entry): as the sequence (P50225 whole entry R213H) above, with H213R counted along it

Row | Compound | inhibition of 3-OH-BaP sulfonation by SULT1A3 (SULT1A3; 50 μM OH-PCB, 1.0 μM 3-OH-BaP) | IC50 (SULT1B1; [4]) [µM] | IC50 (SULT1A1*2 [1]; [5]) [µM] | IC50 (SULT1E1; [6]) [µM] | IC50 (SULT1E1; [7]) [µM] | IC50 (SULT1A1*1; [8]) [µM] | IC50 (SULT1A1*1; [9]) [µM] | inhibition at 50 µM (SULT1A3; 50 μM OH-PCB, 1.0 μM 3-OH-BaP) [%] | other results
1 | Oc1ccc(Cl)cc1-c1ccc(Cl)c(Cl)c1 [Compound A1, 6′-OH-CB35] | did not inhibit | 4.72 | > 100 | ~100 | > 100 | > 100 | > 100 |  | inhibitory potency in words, SULT1B1 (SULT1B1; 1.0 μM 3-OH-BaP): fairly potent inhibitor; inhibitory potency in words, SULT1E1 (SULT1E1; either substrate concentration (0.1 and 1.0 μM 3-OH-BaP)): poor inhibitor; inhibitory potency in words, SULT1A1*1 (SULT1A1*1; both substrate concentrations (0.1 and 1.0 μM 3-OH-BaP)): poor inhibitor
2 | Oc1ccc(-c2ccc(Cl)c(Cl)c2)cc1Cl [Compound B1, 4′-OH-CB35] |  | 16.8 | 0.55 | 0.24 | 1.02 | 0.77 | 25.2 | 2 to 20 | 
3 | Oc1ccc(-c2cc(Cl)cc(Cl)c2)cc1Cl [Compound B2, 4′-OH-CB36] |  | 37 | 0.94 | 0.45 | 1.89 | 1.31 | 28 | 2 to 20 | 
4 | Oc1ccc(-c2c(Cl)cc(Cl)cc2Cl)cc1Cl [Compound B3, 4′-OH-CB69] | did not inhibit | > 100 | 1.31 | 4.87 | 30.8 | 1.16 | 67.5 |  | 
5 | Oc1ccc(-c2cc(Cl)c(Cl)c(Cl)c2Cl)cc1Cl [Compound B4, 4′-OH-CB106] | did not inhibit |  |  |  |  |  |  |  | IC50 (SULT1B1; IC50 SULT1B1, 1.0 μM 3-OH-BaP): 17.4 µM; IC50 (SULT1A1*2 [1]): 1.06 µM; IC50 (SULT1E1; IC50 SULT1E1, 0.1 μM 3-OH-BaP): 1.18 µM; IC50 (SULT1E1; IC50 SULT1E1, 1.0 μM 3-OH-BaP): 6.97 µM; IC50 (SULT1A1*1; [10]): 1.07 µM; IC50 (SULT1A1*1; [11]): 10.3 µM
6 | Oc1c(Cl)cc(-c2ccc(Cl)c(Cl)c2)cc1Cl [Compound C1, 4′-OH-CB79] |  |  |  |  |  |  |  |  | inhibition at 50 µM (SULT1A3): 2 to 20%; IC50 (SULT1B1; IC50 SULT1B1, 1.0 μM 3-OH-BaP): 39.9 µM; IC50 (SULT1A1*2 [1]): 4.57 µM; IC50 (SULT1E1; IC50 SULT1E1, 0.1 μM 3-OH-BaP): 0.5 µM; IC50 (SULT1E1; IC50 SULT1E1, 1.0 μM 3-OH-BaP): 1.32 µM; IC50 (SULT1A1*1; [10]): 6.65 µM; IC50 (SULT1A1*1; [11]): 59.8 µM
7 | Oc1c(Cl)cc(-c2cccc(Cl)c2)cc1Cl [Compound C2, 4-OH-CB36] |  | 47.5 | 3.05 | 0.41 | 1.65 | 3.09 | > 100 | 43 | 
8 | Oc1c(Cl)cc(-c2c(Cl)cc(Cl)cc2Cl)cc1Cl [Compound C3, 4′-OH-CB121] | did not inhibit |  |  |  |  |  |  |  | IC50 (SULT1B1; IC50 SULT1B1, 1.0 μM 3-OH-BaP): > 100 µM; IC50 (SULT1A1*2 [1]): 6.52 µM; IC50 (SULT1E1; IC50 SULT1E1, 0.1 μM 3-OH-BaP): 7.98 µM; IC50 (SULT1E1; IC50 SULT1E1, 1.0 μM 3-OH-BaP): 16.7 µM; IC50 (SULT1A1*1; [10]): 8.15 µM; IC50 (SULT1A1*1; [11]): 99.5 µM
9 | Oc1c(Cl)cc(-c2cc(Cl)c(Cl)c(Cl)c2Cl)cc1Cl [Compound C4, 4′-OH-CB159] |  | > 100 | 1.67 | 1.3 | 3.55 | 2.16 | 34.1 | 2 to 20 | 
10 | Oc1c(Cl)cc(-c2c(Cl)c(Cl)cc(Cl)c2Cl)cc1Cl [Compound C5, 4′-OH-CB165] | did not inhibit | > 100 | 2.59 | 6.96 | 21.4 | 2.58 | 54.8 |  | 
11 | Oc1c(Cl)cc(-c2cc(Cl)ccc2Cl)cc1Cl [Compound C6, 4′-OH-CB72] | did not inhibit | > 100 | 2.03 | 0.57 | 2.28 | 2.21 | 33.8 |  | 
12 | Nc1ncnc2c1ncn2[C@@H]1O[C@H](COP(=O)(O)OS(=O)(=O)O)[C@@H](OP(=O)(O)O)[C@H]1O [PAPS, 3′-phosphoadenosine 5′-phosphosulfate] |  |  |  |  |  |  |  |  | Vmax (varying PAPS) (SULT1A1*2 [2]): 684 pmol/min/mg protein; Km (SULT1A1*2 [2]; read-out: apparent Km for PAPS): 0.32 µM; Vmax (varying PAPS) [3]: 48 ± 2 pmol/min/mg protein; Km ([3]; read-out: apparent Km for PAPS): 0.56 ± 0.09 µM
